Laboratory results as given in article PMC4393269, “Carvacrol Codrugs: A New Approach in the Antimicrobial Plan” (PLoS ONE, 2015).
≈ marks a conversion by molar mass, not a printed value. Structures can show the parent of a compound that is named as a salt. Where two headings read alike, the source gives them in different places. Each block holds one molecule with its values, some of them ahead of it.

Key:
Hemolytic activity = format: cell-based, human; conditions: human, human red blood cells (h-RBC), 4% suspension, pH 7.3; 4% h-RBC in PBS, 1 h at 37°C, at the compound's MIC values
Procedure: (§1) Experimental protocols to study hemolysis on human red cells were approved by Ethics Committee of the University “G. d’Annunzio” Chieti-Pescara. Human red cells were from two volunteers, who signed the informed consent for this study.
(§2) Hemolytic activity of carvacrol codrugs 1–10 was tested against human red blood cells (h-RBC). Fresh human blood, collected with EDTA, was centrifuged at 3000 rpm for 5 min then washed three times with PBS pH 7.3. Red blood cells were diluted to 4% in PBS and incubated with different codrugs concentrations ranging from 25 to 0.05 mg/mL. After 1 h of incubation at 37°C, the suspensions were sedimented by centrifugation and the release of hemoglobin was determined by absorbance measurement at 405 nm and compared with a 0% hemolysis control (PBS) and a 100% hemolysis control (PBS with 1% v/v Triton X-100). The percentage of hemolysis was calculated using the following equation: Hemolysis (%) = [(OD405sample - OD4050% lysis control)/(OD405100% lysis control - OD4050% lysis contro)] X 100

[1] = system: human red blood cells (h-RBC); experiment: Hemolytic activity; format: cell-based; conditions: 4% h-RBC, 1 h at 37°C
Procedure: as §1, §2

S. aureus ATCC 29213 [2] = experiment: Broth microdilution MIC/MBC on planktonic cells; format: cell-based; conditions: Staphylococcus aureus
Procedure: (§3) Two Gram-positive (S. aureus ATCC 29213 and S. epidermidis ATCC 35984) and two Gram-negative (E. coli ATCC 8739 and P. aeruginosa ATCC 9027) strains, and one fungal strain (C. albicans ATCC 10231) were used for the detection of antibacterial activity of carvacrol, NAC, Ac-Cys(Allyl)-OH, and carvacrol codrugs 1–10. All tested compounds were dissolved in 20% DMSO to prepare the stock solution (100 mg/mL). The final concentration of DMSO in each well appeared to be not toxic for all studied microorganisms, as confirmed by the solvent control test included in the study.
(§4) The effects of carvacrol codrugs 1–10 and reference compounds on planktonic cells were evaluated by Minimum Inhibitory Concentration (MIC) and Minimum Bactericidal Concentration (MBC) determination using the broth microdilution method according to EUCAST guidelines. Bacterial suspensions, grown in Mueller–Hinton Broth (MHB) at logarithmic phase, were incubated on microtiter plates at a concentration of 5 x 10^5 CFU/mL, with several dilutions (0.07–40 mg/mL) for 24 h at 37°C. The MIC was defined as the lowest concentration of substances giving a complete inhibition of visible growth in comparison with a control well, and the MBC was determined as the lowest concentration at which no bacterial growth occurred on Mueller–Hinton Agar plates.
(§5) Data were obtained from at least three independent experiments performed in duplicate. The susceptibility of the bacterial strains against ciprofloxacin was used as an internal standard during MIC determinations.

E. coli ATCC 8739 [3] = experiment: Broth microdilution MIC/MBC on planktonic cells; format: cell-based; conditions: Escherichia coli
Procedure: as §3, §4, §5

P. aeruginosa ATCC 9027 [4] = experiment: Broth microdilution MIC/MBC on planktonic cells; format: cell-based; conditions: Pseudomonas aeruginosa
Procedure: as §3, §4, §5

[5] = system: S. epidermidis ATCC 35984; experiment: Broth microdilution MIC/MBC on planktonic cells; format: cell-based; conditions: Staphylococcus epidermidis
Procedure: as §3, §4, §5

C. albicans ATCC 10231 [6] = experiment: Broth microdilution MIC/MFC; format: cell-based; conditions: Candida albicans, ATCC10231
Procedure: as §3
The MIC detection of C. albicans ATCC 10231 was performed using the broth microdilution method according to EUCAST guidelines in RPMI 1640 plus 2% glucose with a final inoculum of 1–5 x 10^5 CFU/mL for 24–48 h at 37°C. The Minimum Fungicidal Concentration (MFC) was determined as the lowest concentration of substances at which no fungal growth occurred on Sabouraud agar plates.
as §5

S. aureus ATCC 29213 [7] = experiment: Antibiofilm assay on established biofilm (BIC/BEC); format: cell-based; conditions: S. aureus ATCC 29213 established biofilm
Procedure: (§6) The efficacy on established biofilm was evaluated by determining Biofilm Inhibitory Concentration (BIC) and Biofilm Eradication Concentration (BEC) according to the method described by Johnson et al. with some modifications. Bacterial suspensions, grown in Tryptic soy broth supplemented with 0.5% (v/v) glucose at logarithmic phase, as well as C. albicans grown in RPMI 1640 plus 2% glucose, were incubated on flat-bottomed microtiter plates at a concentration of 5 x 10^5 CFU/mL. After 24 h of incubation at 37°C, the planktonic cells were gently removed and wells were washed with sterile phosphate-buffered saline solution (PBS) pH 7.3 and filled with carvacrol, carvacrol codrug 4, Ac-Cys(Allyl)-OH with dilutions ranging from the MIC values to a maximum concentration of 50 mg/mL. The OD600 was measured at time 0 and after incubation for 24 h at 37°C. The BIC values were determined as the lowest concentrations where no growth occurred in the supernatant fluid, confirmed by no increase in optical density compared with the initial reading. The BEC values were determined as the lowest concentrations at which no bacterial growth occurred on Tryptic soy agar for bacteria and on Sabouraud agar for C. albicans. Data were obtained from at least three independent experiments performed in duplicate.

E. coli ATCC 8739 [8] = experiment: Antibiofilm assay on established biofilm (BIC/BEC); format: cell-based
Procedure: as §6

C. albicans ATCC 10231 [9] = experiment: Antibiofilm assay on established biofilm (BIC/BEC); format: cell-based
Procedure: as §6

P. aeruginosa ATCC 9027 [10] = experiment: Antibiofilm assay on established biofilm (BIC/BEC); format: cell-based
Procedure: as §6

[11] = system: S. epidermidis ATCC 35984; experiment: Antibiofilm assay on established biofilm (BIC/BEC); format: cell-based
Procedure: as §6

[12] = ATCC29213, S. aureus ATCC 29213, 24 h at 37°C, read-out: MIC
[13] = ATCC29213, S. aureus ATCC 29213, read-out: MBC
[14] = ATCC8739, E. coli ATCC 8739, 24 h at 37°C, read-out: MIC
[15] = ATCC8739, E. coli ATCC 8739, read-out: MBC
[16] = ATCC9027, P. aeruginosa ATCC 9027, 24 h at 37°C, read-out: MIC
[17] = ATCC9027, P. aeruginosa ATCC 9027, read-out: MBC
[18] = ATCC35984, S. epidermidis ATCC 35984, 24 h at 37°C, read-out: MIC
[19] = ATCC35984, S. epidermidis ATCC 35984, read-out: MBC
[20] = C. albicans ATCC 10231, 24–48 h at 37°C, read-out: MIC
[21] = C. albicans ATCC 10231, read-out: MFC

Compound: C#CCSC[C@H](NC(C)=O)C(=O)Oc1cc(C(C)C)ccc1C [codrug 9, N-Ac-Cys(Propargyl)-CAR]
hemolysis at 1 h (Hemolytic activity): > 50%
concentration at which hemolytic activity is over 50% [1]: 10000 µg/mL
MIC (S. aureus ATCC 29213 [2]; [12]): 10000 µg/mL (≈ 30 mM)
MBC (S. aureus ATCC 29213 [2]; [13]): 10000 µg/mL (≈ 30 mM)
MIC (E. coli ATCC 8739 [3]; [14]): 10000 µg/mL (≈ 30 mM)
MBC (E. coli ATCC 8739 [3]; [15]): 10000 µg/mL (≈ 30 mM)
MIC (P. aeruginosa ATCC 9027 [4]; [16]): 10000 µg/mL (≈ 30 mM)
MBC (P. aeruginosa ATCC 9027 [4]; [17]): 10000 µg/mL (≈ 30 mM)
MIC [5, 18]: 5000 µg/mL (≈ 15 mM)
MBC [5, 19]: 10000 µg/mL (≈ 30 mM)
MIC (C. albicans ATCC 10231 [6]; [20]): 1250 µg/mL (≈ 3.75 mM)
MFC (C. albicans ATCC 10231 [6]; [21]): 2500 µg/mL (≈ 7.5 mM)

Compound: CCSC[C@H](NC(C)=O)C(=O)Oc1cc(C(C)C)ccc1C [codrug 3, N-Ac-Cys(Ethyl)-CAR]
concentration at which hemolytic activity is over 50% [1]: over 20 mg/mL
MIC (S. aureus ATCC 29213 [2]; [12]): 10000 µg/mL (≈ 30.9 mM)
MBC (S. aureus ATCC 29213 [2]; [13]): 10000 µg/mL (≈ 30.9 mM)
MIC (E. coli ATCC 8739 [3]; [14]): 10000 µg/mL (≈ 30.9 mM)
MBC (E. coli ATCC 8739 [3]; [15]): 10000 µg/mL (≈ 30.9 mM)
MIC (P. aeruginosa ATCC 9027 [4]; [16]): 10000 µg/mL (≈ 30.9 mM)
MBC (P. aeruginosa ATCC 9027 [4]; [17]): 10000 µg/mL (≈ 30.9 mM)
MIC [5, 18]: 10000 µg/mL (≈ 30.9 mM)
MBC [5, 19]: 10000 µg/mL (≈ 30.9 mM)
MIC (C. albicans ATCC 10231 [6]; [20]): 2500 µg/mL (≈ 7.73 mM)
MFC (C. albicans ATCC 10231 [6]; [21]): 2500 µg/mL (≈ 7.73 mM)

Compound: Cc1ccc(C(C)C)cc1O [Carvacrol, 2-methyl-5-[1-methylethyl]phenol]
MBC (S. aureus ATCC 29213 [2]; ATCC29213): 1250 µg/mL (≈ 8.32 mM)
MIC (S. aureus ATCC 29213 [2]; ATCC29213, 24 h): 600 µg/mL (≈ 3.99 mM)
MBC (E. coli ATCC 8739 [3]; ATCC8739): 1250 µg/mL (≈ 8.32 mM)
MIC (E. coli ATCC 8739 [3]; ATCC8739, 24 h): 600 µg/mL (≈ 3.99 mM)
MBC (P. aeruginosa ATCC 9027 [4]; ATCC9027): 10000 µg/mL (≈ 66.6 mM)
MIC (P. aeruginosa ATCC 9027 [4]; ATCC9027, 24 h): 5000 µg/mL (≈ 33.3 mM)
MBC ([5]; ATCC35984): 1250 µg/mL (≈ 8.32 mM)
MIC ([5]; ATCC35984, 24 h): 300 µg/mL (≈ 2 mM)
BEC (S. aureus ATCC 29213 [7]): 2.5 mg/mL
BIC (S. aureus ATCC 29213 [7]; 24 h): 1.2 mg/mL
BEC as multiple of MIC (E. coli ATCC 8739 [8]; E. coli ATCC 8739): 64MIC
BIC as multiple of MIC (E. coli ATCC 8739 [8]; E. coli ATCC 8739): 64MIC
BEC (E. coli ATCC 8739 [8]; E. coli ATCC 8739 established biofilm): 40 mg/mL
BIC (E. coli ATCC 8739 [8]; E. coli ATCC 8739 established biofilm, 24 h): 40 mg/mL
BEC as multiple of MIC (C. albicans ATCC 10231 [9]; C. albicans ATCC 10231): MFC
BEC (C. albicans ATCC 10231 [9]; C. albicans ATCC 10231 established biofilm): 0.6 mg/mL
BIC (C. albicans ATCC 10231 [9]; C. albicans ATCC 10231 established biofilm, 24 h): 0.3 mg/mL
BEC as multiple of MIC (P. aeruginosa ATCC 9027 [10]; P. aeruginosa ATCC 9027): 2MIC
BEC (P. aeruginosa ATCC 9027 [10]; P. aeruginosa ATCC 9027 established biofilm): 10 mg/mL
BIC (P. aeruginosa ATCC 9027 [10]; P. aeruginosa ATCC 9027 established biofilm, 24 h): 5 mg/mL
BEC as multiple of MIC ([11]; S. epidermidis ATCC 35984): 2MIC
BEC ([11]; S. epidermidis ATCC 35984 established biofilm): 0.6 mg/mL
BIC ([11]; S. epidermidis ATCC 35984 established biofilm, 24 h): 0.3 mg/mL
MFC (C. albicans ATCC 10231 [6]): 600 µg/mL (≈ 3.99 mM)
MIC (C. albicans ATCC 10231 [6]): 300 µg/mL (≈ 2 mM)

More lines, main results first:

MIC (S. aureus ATCC 29213 [2]; [12]): 5000 µg/mL
MIC (E. coli ATCC 8739 [3]; [14]): 5000 µg/mL
MIC (P. aeruginosa ATCC 9027 [4]; [16]): 10000 µg/mL
MIC [5, 18]: 2500 µg/mL
MIC (C. albicans ATCC 10231 [6]; [20]): 600 µg/mL
Compound: Cc1ccc(C(C)C)cc1OC(=O)[C@@H]1CSCN1 [codrug 8, TFA·TCA-CAR]
hemolysis at 1 h (Hemolytic activity): > 50%
concentration at which hemolytic activity is over 50% [1]: 3000 µg/mL
MBC (S. aureus ATCC 29213 [2]; [13]): 10000 µg/mL
MBC (E. coli ATCC 8739 [3]; [15]): 5000 µg/mL
MBC (P. aeruginosa ATCC 9027 [4]; [17]): 10000 µg/mL
MBC [5, 19]: 5000 µg/mL
MFC (C. albicans ATCC 10231 [6]; [21]): 600 µg/mL

MIC (S. aureus ATCC 29213 [2]; [12]): 10000 µg/mL (≈ 29.5 mM)
MIC (E. coli ATCC 8739 [3]; [14]): 5000 µg/mL (≈ 14.8 mM)
MIC (P. aeruginosa ATCC 9027 [4]; [16]): 5000 µg/mL (≈ 14.8 mM)
MIC [5, 18]: 10000 µg/mL (≈ 29.5 mM)
MIC (C. albicans ATCC 10231 [6]; [20]): 2500 µg/mL (≈ 7.38 mM)
Compound: Cc1ccc(C(C)C)cc1OC(=O)CCCC[C@@H]1CCSS1 [codrug 7, LA-CAR]
hemolytic activity, maximum at the tested concentrations ([1]; 25 to 0.05 mg/mL): ≤ 12%
MBC (S. aureus ATCC 29213 [2]; [13]): 10000 µg/mL (≈ 29.5 mM)
MBC (E. coli ATCC 8739 [3]; [15]): 10000 µg/mL (≈ 29.5 mM)
MBC (P. aeruginosa ATCC 9027 [4]; [17]): 10000 µg/mL (≈ 29.5 mM)
MBC [5, 19]: 10000 µg/mL (≈ 29.5 mM)
MFC (C. albicans ATCC 10231 [6]; [21]): 5000 µg/mL (≈ 14.8 mM)
